Results: EP0771196B1, “EXCITATORY AMINO ACID RECEPTOR ANTAGONISTS” (ELI LILLY AND COMPANY, priority 1994, dated 1996)
Marks after values point to notes of the source that are not given here.

System: metabotropic glutamate receptors
Assay: Displacement of 1S,3R-ACPD-sensitive [3H]glutamate binding to rat brain cell membranes
Conditions: crude membranes of rat forebrain; for IC50: inhibition of [3H]glutamate binding; for ACPD-Sensitive [^3H]Glutamate Binding % Displacement at 10 µM: 10 µM compound
Protocol: The binding of [^3H]glutamate was conducted with crude membranes of rat forebrain as described by Schoepp and True. Schoepp and True, Neuroscience Lett., 145, 100-104 (1992) and True and Schoepp, Society for Neuroscience Abstracts, 19, 470 (1993). IC50 values for the inhibition of [^3H]glutamate binding, or the percent displacement of [^3H]glutamate binding at a 10 µM concentration, of the formula I compound, is shown in Table II.

`Cc1ccccc1CCC(N)(C(=O)O)[C@H]1C[C@@H]1C(=O)O` (mixture of isomers) [Example 20, 2SR- and 2RS-2-amino-2-(1SR,2SR-2-carboxycyclopropan-1-yl)-4-(2-methylphenyl)butanoic acid] was tested, and the IC50 was 570 nM.

For `NC(CC1CCCCC1)(C(=O)O)[C@H]1C[C@@H]1C(=O)O` (mixture of isomers) [Example 62, 2SR- and 2RS-2-amino-2-(1SR,2SR-2-carboxycyclopropan-1-yl)-3-cyclohexylpropanoic acid], the IC50 was 230 nM.

Work on `NC(CC(c1ccccc1)c1ccccc1)(C(=O)O)C1CC1C(=O)O` (stereo not drawn) [Example 5, 2SR- and 2RS-2-amino-2-(1SR,2SR-2-carboxycyclopropan-1-yl)-4,4-diphenylbutanoic acid] yielded an IC50 of 76 nM.

In the case of `NC(Cc1ccc(C(=O)O)cc1)(C(=O)O)C1CC1C(=O)O` (stereo not drawn) [Example 42, 2SR- and 2RS-2-amino-2-(1SR,2SR-2-carboxycyclopropan-1-yl)-3-((4-carboxy)phenyl)propanoic acid], the “ACPD-Sensitive [^3H]Glutamate Binding % Displacement at 10 µM” value is reported as “(39%)”.

For `N[C@](CC(c1ccccc1)c1ccccc1)(C(=O)O)[C@@H]1C[C@H]1C(=O)O` [Example 66, 2S-2-amino-2-(1R,2R-2-carboxycyclopropan-1-yl)-4,4-diphenylbutanoic acid], the “ACPD-Sensitive [^3H]Glutamate Binding % Displacement at 10 µM” value was “(36%)”.

In the case of `NC(CCc1ccsc1)(C(=O)O)[C@H]1C[C@@H]1C(=O)O` (mixture of isomers) [Example 59, 2SR- and 2RS-2-amino-2-(1SR,2SR-2-carboxycyclopropan-1-yl)-4-(3-thienyl)butanoic acid], the IC50 is reported as 210 nM.

Molecule `NC(CCC12CC3CC(CC(C3)C1)C2)(C(=O)O)C1CC1C(=O)O` (stereo not drawn) [Example 36] has an IC50 of 200 nM.

Molecule `NC(CCc1c(F)c(F)c(F)c(F)c1F)(C(=O)O)[C@H]1C[C@@H]1C(=O)O` (mixture of isomers) [Example 50, 2SR- and 2RS-2-amino-2-(1SR,2SR-2-carboxycyclopropan-1-yl)-4-(2,3,4,5,6-pentafluorophenyl)butanoic acid] has an IC50 of 370 nM.

With `COc1cc(CCC(N)(C(=O)O)[C@H]2C[C@@H]2C(=O)O)cc(OC)c1` (mixture of isomers) [Example 53, 2SR- and 2RS-2-amino-2-(1SR,2SR-2-carboxycyclopropan-1-yl)-4-(3,5-dimethoxyphenyl)butanoic acid] the IC50 was 95 nM.

Molecule `NC(CCc1ccc(F)c(F)c1)(C(=O)O)[C@H]1C[C@@H]1C(=O)O` (mixture of isomers) [Example 78, 2SR- and 2RS-2-amino-2-(1SR,2SR-2-carboxycyclopropan-1-yl)-4-(3,4-difluorophenyl)butanoic acid] has an IC50 of 37 nM.

In the case of `N[C@@](CC(c1ccccc1)c1ccccc1)(C(=O)O)[C@H]1C[C@@H]1C(=O)O` [Example 63, 2R 2-amino-2-(1S,2S-2-carboxycyclopropan-1-yl)-4,4-diphenylbutanoic acid], the IC50 is reported as 2000 nM.

`CCC(N)(C(=O)O)C1CC1C(=O)O` (stereo not drawn) [Example 9, 2SR- and 2RS-2-amino-2-(1SR,2SR-2-carboxycyclopropan-1-yl)butanoic acid] showed an IC50 of 2200 nM.

For `COc1cccc(CCC(N)(C(=O)O)C2CC2C(=O)O)c1` (stereo not drawn) [Example 27, 2SR- and 2RS-2-amino-2-(1SR,2SR-2-carboxycyclopropan-1-yl) -4-(3-methoxyphenyl)butanoic acid], the IC50 was 42 nM.

`NC(CCc1ccc(O)cc1)(C(=O)O)C1CC1C(=O)O` (stereo not drawn) [Example 31, 2SR- and 2RS-2-amino-2-(1SR,2SR-2-carboxycyclopropan-1-yl)-4-(4-hydroxyphenyl)butanoic acid] showed an IC50 of 300 nM.

For `N[C@@](CC1c2ccccc2Oc2ccccc21)(C(=O)O)[C@H]1C[C@@H]1C(=O)O` [Example 71, 2R-2 amino-2-(1S,2S-2-carboxycyclopropan-1-yl)-3-(dibenzopyran-4-yl)propanoic acid], the IC50 was 530 nM.

`NC(Cc1cccc2c1Oc1ccccc1C2)(C(=O)O)[C@H]1C[C@@H]1C(=O)O` (mixture of isomers) [Example 35, 2SR- and 2RS-2-amino-2-(1SR,2SR-2-carboxycyclopropan-1-yl)-3-(dibenzopyran-4-yl)propanoic acid] gave an IC50 of 9 nM.

With `CC(C)CCCC(N)(C(=O)O)[C@H]1C[C@@H]1C(=O)O` (mixture of isomers) [Example 17, 2SR- and 2RS-2-amino-2-(1SR, 2SR-2-carboxycyclopropan-1-yl)-6-methylheptanoic acid] the IC50 was 850 nM.

`NC(CCc1cc(Cl)cc(Cl)c1)(C(=O)O)[C@H]1C[C@@H]1C(=O)O` (mixture of isomers) [Example 75, 2SR- and 2RS-2-amino-2-(1SR,2SR-2carboxycyclopropan-1-yl)-4-(3,5-dichlorophenyl)butanoic acid] was tested, and the IC50 was 25 nM.

Molecule `NC(CCc1ccccc1C(F)(F)F)(C(=O)O)[C@H]1C[C@@H]1C(=O)O` (mixture of isomers) [Example 57, 2SR- and 2RS-2-amino-2-(1SR,2SR-2-carboxycyclopropan-1-yl)-4-(2-(trifluoromethyl)phenyl)butanoic acid] has an IC50 of 480 nM.

Work on `Cc1ccc(CCC(N)(C(=O)O)[C@H]2C[C@@H]2C(=O)O)cc1` (mixture of isomers) [Example 22, 2SR- and 2RS-2-amino-2-(1SR,2SR-2-carboxycyclopropan-1-yl)-4-(4-methylphenyl)butanoic acid] yielded an IC50 of 590 nM.

For `Cc1cccc(CCC(N)(C(=O)O)C2CC2C(=O)O)c1` [Example 70, 2S-2-amino-2-(1R,2R,2-carboxycyclopropan-1-yl)-4-(3-methylphenyl)butanoic acid], the IC50 was 8100 nM.

`NC(CC(c1ccc(Cl)cc1)c1ccc(Cl)cc1)(C(=O)O)C1CC1C(=O)O` (stereo not drawn) [Example 46, 2SR- and 2RS-2-amino-2-(1SR,2SR-2-carboxycyclopropan-1-yl)-4,4-di(4,4'-dichloro)phenylbutanoic acid] gave an IC50 of 77 nM.

With `NC(CCc1ccccc1Cl)(C(=O)O)[C@H]1C[C@@H]1C(=O)O` (mixture of isomers) [Example 23, 2SR- and 2RS-2-amino-2-(1SR,2SR-2-carboxycyclopropan-1-yl)-4-(2-chlorophenyl)butanoic acid] the IC50 was 260 nM.

`NC(CCc1cccc(Cl)c1)(C(=O)O)[C@H]1C[C@@H]1C(=O)O` (mixture of isomers) [Example 24, 2SR- and 2RS-2-amino-2-(1SR,2SR-2-carboxycyclopropan-1-yl)-4-(3-chlorophenyl)butanoic acid] showed an IC50 of 110 nM.

`NC(CC1CCCC1)(C(=O)O)C1CC1C(=O)O` (stereo not drawn) [Example 41, 2SR- and 2RS-2-amino-2-(1SR,2SR-2-carboxycyclopropan-1-yl)-3-cyclopentylpropanoic acid] showed an IC50 of 1400 nM.

Molecule `NC(CCc1cccc(-c2ccccc2)c1)(C(=O)O)[C@H]1C[C@@H]1C(=O)O` (mixture of isomers) [Example 76, 2SR- and 2RS-2-amino-2-(1SR,2SR-2-carboxycyclopropan-1-yl)-4-(3-biphenyl)butanoic acid] has an IC50 of 510 nM.

`N[C@](CC(c1ccccc1)c1ccccc1)(C(=O)O)[C@H]1C[C@@H]1C(=O)O` [Example 64, 2S-2-amino-2-(1S,2S-2-carboxycyclopropan-1-yl)-4,4-diphenylbutanoic acid] gave an IC50 of 35 ± 5 nM.

In the case of `CCCCC(N)(C(=O)O)C1CC1C(=O)O` (stereo not drawn) [Example 11, 2SR- and 2RS-2-amino-2-(1SR,2SR-2-carboxycyclopropan-1-yl)hexanoic acid], the IC50 is reported as 1400 nM.

In the case of `NC(CCC1CCNCC1)(C(=O)O)C1CC1C(=O)O` (stereo not drawn) [Example 45, 2SR- and 2RS-2-amino-2-(1SR,2SR-2-carboxycyclopropan-1-yl)-2-(piperidin-4-yl)butanoic acid], the “ACPD-Sensitive [^3H]Glutamate Binding % Displacement at 10 µM” value is reported as “(42%)”.

`NC(CCc1ccc(F)cc1F)(C(=O)O)[C@H]1C[C@@H]1C(=O)O` (mixture of isomers) [Example 77, 2SR- and 2RS-2-amino-2-(1SR,2SR-2-carboxycyclopropan-1-yl)-4-(2,4-difluorophenyl)butanoic acid] gave an IC50 of 60 nM.

For `COc1ccc(CCC(N)(C(=O)O)C2CC2C(=O)O)cc1OC` (stereo not drawn) [Example 33, 2SR- and 2RS-2-amino-2-(1SR,2SR-2-carboxycyclopropan-1-yl)-4-(3,4-dimethoxyphenyl)butanoic acid], the IC50 was 460 nM.

For `NC(CCc1ccc2ccccc2c1)(C(=O)O)[C@H]1C[C@@H]1C(=O)O` (mixture of isomers) [Example 19, 2SR- and 2RS-2-amino-2-(1SR,2SR-2-carboxycyclopropan-1-yl)-4-(naphth-2-yl)butanoic acid], the IC50 was 2800 nM.

For `CCCCCC(N)(C(=O)O)C1CC1C(=O)O` (stereo not drawn) [Example 12, 2SR- and 2RS-2-amino-2-(1SR,2SR-2-carboxycyclopropan-1-yl)heptanoic acid], the IC50 was 1800 nM.

Work on `NC(CCc1cccs1)(C(=O)O)[C@H]1C[C@@H]1C(=O)O` (mixture of isomers) [Example 58, 2SR- and 2RS-2-amino-2-(1SR,2SR-2-carboxycyclopropan-1-yl)-4-(2-thienyl)butanoic acid] yielded an IC50 of 580 nM.

`CC(CC(N)(C(=O)O)C1CC1C(=O)O)c1ccccc1` (stereo not drawn) [Example 34, 2SR,5SR-, 2SR,5RS-, 2RS,5SR- and 2RS,5RS-2-amino-2-(1SR,2SR-2-carboxycyclopropan-1-yl)-4-methyl-4-phenylbutanoic acid] gave an IC50 of 120 nM.

`NC(CCc1ccccc1)(C(=O)O)C1CC1C(=O)O` (stereo not drawn) [Example 2, 2SR- and 2RS-2-amino-2-(1SR,2SR-2-carboxycyclopropan-1-yl)-4-phenylbutanoic acid] was tested, and the IC50 was 320 nM.

`NC(CC1CCC1)(C(=O)O)C1CC1C(=O)O` (stereo not drawn) [Example 40, 2SR- and 2RS-2-amino-2-(1SR,2SR-2-carboxycyclopropan-1-yl)-3-cyclobutylpropanoic acid] was tested, and the IC50 was 29500 nM.

`NC(CCCCc1ccccc1)(C(=O)O)C1CC1C(=O)O` (stereo not drawn) [Example 4, 2SR- and 2RS-2-amino-2-(1SR,2SR-2-carboxycyclopropan-1-yl)-6-phenylhexanoic acid] showed an IC50 of 2300 nM.

For `Cc1cccc(CCC(N)(C(=O)O)C2CC2C(=O)O)c1` (stereo not drawn) [Example 69, 2R-2-amino-2-(1R ,2R-2-carboxycyclopropan-1-yl)-4-(3-methylphenyl)butanoic acid], the “ACPD-Sensitive [^3H]Glutamate Binding % Displacement at 10 µM” value (10 µM) was “(13%)^d”.
